Laboratory results reported in paper PMC12298351, “Novel 3,19-(N-Phenyl-3-(4-fluorophenyl)-pyrazole) Acetal of Andrographolide Promotes Cell Cycle Arrest and Apoptosis in MDA-MB-231 Breast Cancer Cells” (Pharmaceuticals, 2025).

Legend:
HCT-116 = type: cell-based; conditions: HCT-116, Colon
TK-10 = type: cell-based; conditions: TK-10, Renal
MOLT-4 = conditions: MOLT-4, Leukemia
HCC-2998 = conditions: HCC-2998, Colon
HCT-15 = conditions: HCT-15, Colon
KM12 = conditions: KM12, Colon
SF-268 = conditions: SF-268, CNS
SF-539 = conditions: SF-539, CNS
SNB-75 = conditions: SNB-75, CNS
U251 = conditions: U251, CNS
MALME-3M = conditions: Melanoma
SK-MEL-28 = conditions: SK-MEL-28, Melanoma
UACC-257 = conditions: UACC-257, Melanoma
IGROV1 = conditions: IGROV1, Ovarian
OVCAR-3 = conditions: OVCAR-3, Ovarian
A498 = conditions: A498, Renal
CAKI-1 = conditions: CAKI-1, Renal
PC-3 = conditions: PC-3, Prostate
MDA-MB-468 = conditions: MDA-MB-468, Breast
[1] = read-out: 50% lethal concentration (LC50), Leukemia
[2] = read-out: 50% lethal concentration (LC50)
[3] = read-out: 50% lethal concentration (LC50), Breast

Compound `C=C1CCC2C3(C)COC(c4cn(-c5ccccc5)nc4-c4ccc(F)cc4)OC3CCC2(C)C1CC=C1C(=O)OCC1O` (stereo not shown) [1f, 3,19-(N-Phenyl-3-(4-fluorophenyl)-pyrazole) Acetal of Andrographolide] has a GI50 (HCT-116) of 0.39 µM, a Total growth inhibition (TGI) (HCT-116) of 1.18 µM and a GI50 (TK-10) of 1.27 µM. The Total growth inhibition (TGI) (TK-10) was 2.55 µM, the GI50 (HL-60(TB); Leukemia) was 0.64 µM and the Total growth inhibition (TGI) (HL-60(TB); Leukemia) was 7.12 µM. The CC50 (HL-60(TB); [1]) was > 100 µM, the GI50 (MOLT-4) was 0.6 µM and the CC50 (MOLT-4; [2]) was > 100 µM. For the same compound, the GI50 (SR; Leukemia) was 1.7 µM, the Total growth inhibition (TGI) (SR; Leukemia) was 7.33 µM and the CC50 (SR; [1]) was > 100 µM. For the same compound, the Total growth inhibition (TGI) (EKVX; Non-Small Cell Lung) was 4.72 µM, the GI50 (EKVX; Non-Small-Cell Lung) was 2.06 µM and the CC50 (EKVX; read-out: 50% lethal concentration (LC50), Non-Small Cell Lung) was > 100 µM. It also gave a Total growth inhibition (TGI) (HOP-62; HOP-62, Non-Small Cell Lung) of 3.36 µM, a GI50 (HOP-62; HOP-62, Non-Small-Cell Lung) of 1.62 µM and a CC50 (HOP-62; read-out: 50% lethal concentration (LC50), HOP-62, Non-Small Cell Lung) of 6.95 µM. For the same compound, the Total growth inhibition (TGI) (HOP-92; HOP-92, Non-Small Cell Lung) was 2.73 µM, the GI50 (HOP-92; HOP-92, Non-Small-Cell Lung) was 1.29 µM and the CC50 (HOP-92; read-out: 50% lethal concentration (LC50), HOP-92, Non-Small Cell Lung) was 5.78 µM. The Total growth inhibition (TGI) (NCI-H460; NCI-H460, Non-Small Cell Lung) was 3.33 µM, the GI50 (NCI-H460; NCI-H460, Non-Small-Cell Lung) was 1.69 µM and the CC50 (NCI-H460; read-out: 50% lethal concentration (LC50), NCI-H460, Non-Small Cell Lung) was 6.57 µM. It also gave a Total growth inhibition (TGI) (NCI-H522; NCI-H522, Non-Small Cell Lung) of 3.82 µM, a GI50 (NCI-H522; NCI-H522, Non-Small-Cell Lung) of 1.95 µM and a CC50 (NCI-H522; read-out: 50% lethal concentration (LC50), NCI-H522, Non-Small Cell Lung) of 7.48 µM. For the same compound, the GI50 (HCC-2998) was 1.76 µM, the Total growth inhibition (TGI) (HCC-2998) was 3.21 µM and the GI50 (HCT-15) was 1.61 µM. It also gave a Total growth inhibition (TGI) (HCT-15) of 3.18 µM, a CC50 (HCT-15; [2]) of 6.28 µM and a GI50 (KM12) of 1.84 µM. For the same compound, the Total growth inhibition (TGI) (KM12) was 3.59 µM, the GI50 (SF-268) was 2.36 µM and the Total growth inhibition (TGI) (SF-268) was 5.63 µM. For the same compound, the CC50 (SF-268; [2]) was 25.7 µM, the GI50 (SF-539) was 1.77 µM and the Total growth inhibition (TGI) (SF-539) was 3.16 µM. The CC50 (SF-539; [2]) was 5.65 µM, the GI50 (SNB-75) was 1.66 µM and the Total growth inhibition (TGI) (SNB-75) was 3.09 µM. The CC50 (SNB-75; [2]) was 5.86 µM, the GI50 (U251) was 2.36 µM and the Total growth inhibition (TGI) (U251) was 5.63 µM. For the same compound, the GI50 (LOX IMVI; Melanoma) was 1.32 µM, the Total growth inhibition (TGI) (LOX IMVI; Melanoma) was 2.59 µM and the CC50 (LOX IMVI; read-out: 50% lethal concentration (LC50), Melanoma) was 5.09 µM. The GI50 (MALME-3M) was 1.58 µM, the Total growth inhibition (TGI) (MALME-3M) was 3.02 µM and the GI50 (SK-MEL-28) was 1.66 µM. It also gave a Total growth inhibition (TGI) (SK-MEL-28) of 3.12 µM, a CC50 (SK-MEL-28; [2]) of 5.86 µM and a GI50 (UACC-257) of 1.65 µM. The Total growth inhibition (TGI) (UACC-257) was 3.18 µM, the GI50 (IGROV1) was 1.84 µM and the Total growth inhibition (TGI) (IGROV1) was 4.75 µM. For the same compound, the CC50 (IGROV1; [2]) was > 100 µM, the GI50 (OVCAR-3) was 2.02 µM and the Total growth inhibition (TGI) (OVCAR-3) was 3.71 µM. For the same compound, the CC50 (OVCAR-3; [2]) was 6.79 µM, the GI50 (A498) was 3.31 µM and the Total growth inhibition (TGI) (A498) was 11.5 µM. The CC50 (A498; [2]) was 38.3 µM, the GI50 (ACHN; Renal) was 1.66 µM and the Total growth inhibition (TGI) (ACHN; Renal) was 3.11 µM. It also gave a CC50 (ACHN; read-out: 50% lethal concentration (LC50), Renal) of 5.82 µM, a GI50 (CAKI-1) of 1.58 µM and a Total growth inhibition (TGI) (CAKI-1) of 3.17 µM. It also gave a CC50 (CAKI-1; [2]) of 6.34 µM, a GI50 (PC-3) of 1.55 µM and a Total growth inhibition (TGI) (PC-3) of 4.04 µM. The CC50 (PC-3; [2]) was > 100 µM, the GI50 (MDA-MB-231; MDA-MB-231, Breast) was 1.68 µM and the Total growth inhibition (TGI) (MDA-MB-231; MDA-MB-231/ATCC, Breast) was 3.28 µM. It also gave a CC50 (MDA-MB-231; read-out: 50% lethal concentration (LC50), MDA-MB-231/ATCC, Breast) of 6.41 µM, a GI50 (HS 578T; Breast) of 1.51 µM and a Total growth inhibition (TGI) (HS 578T; Breast) of 2.94 µM. The CC50 (HS 578T; [3]) was 5.72 µM, the GI50 (T-47D; Breast) was 1.19 µM and the Total growth inhibition (TGI) (T-47D; Breast) was 2.97 µM. It also gave a CC50 (T-47D; [3]) of 7.44 µM, a GI50 (MDA-MB-468) of 1.53 µM and a Total growth inhibition (TGI) (MDA-MB-468) of 2.96 µM. It also gave a CC50 (MDA-MB-468; [2]) of 5.71 µM.
